Experimental data as given in patent US20240158446A1, “CYCLIC COMPOUND HAVING SELECTIVE INHIBITORY ACTION ON KRAS OVER HRAS AND NRAS” (CHUGAI SEIYAKU KABUSHIKI KAISHA, priority 2021, published 2024).
Read-outs that look alike come from different tables or passages of the source.

Legend:
[1] = biological target: GDP-bound KRAS wild-type protein (Homo sapiens, UniProt P01116); test: Binding to KRAS by surface plasmon resonance (SPR), Single Cycle Kinetics; conditions: GDP-bound KRAS wild-type protein, read-out: KRAS KD
GDP-bound KRAS wild-type protein, sequence (P01116 whole entry): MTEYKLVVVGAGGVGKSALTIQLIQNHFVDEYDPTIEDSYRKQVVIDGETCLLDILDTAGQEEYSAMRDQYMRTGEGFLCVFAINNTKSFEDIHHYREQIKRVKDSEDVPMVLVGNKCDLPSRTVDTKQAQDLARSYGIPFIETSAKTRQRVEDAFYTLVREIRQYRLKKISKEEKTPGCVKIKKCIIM

[2] = biological target: GDP-bound NRAS wild-type protein (Homo sapiens, UniProt P01111); test: Binding to NRAS by surface plasmon resonance (SPR), Single Cycle Kinetics; conditions: for NRAS/KRAS (ratio of KD value for NRAS to KD value for KRAS): SPR, GDP-bound NRAS wild-type protein vs GDP-bound KRAS wild-type protein; for NRAS/KRAS (ratio of KD value with respect to GDP-bound NRAS wild-type protein to KD value with respect to KRAS): SPR KD ratio NRAS/KRAS, class symbols
GDP-bound NRAS wild-type protein, sequence (P01111 whole entry): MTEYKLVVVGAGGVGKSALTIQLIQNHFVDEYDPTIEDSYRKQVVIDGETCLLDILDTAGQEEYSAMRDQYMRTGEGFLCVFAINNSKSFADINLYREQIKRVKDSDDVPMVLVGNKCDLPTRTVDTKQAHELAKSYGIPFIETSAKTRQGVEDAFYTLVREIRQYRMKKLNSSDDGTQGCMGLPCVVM

[3] = biological target: GDP-bound HRAS wild-type protein (Homo sapiens, UniProt P01112); test: Binding to HRAS by surface plasmon resonance (SPR), Single Cycle Kinetics; conditions: for HRAS/KRAS (ratio of KD value for HRAS to KD value for KRAS): SPR, GDP-bound HRAS wild-type protein vs GDP-bound KRAS wild-type protein; for HRAS/KRAS (ratio of KD value with respect to GDP-bound HRAS wild-type protein to KD value with respect to KRAS): SPR KD ratio HRAS/KRAS, class symbols
GDP-bound HRAS wild-type protein, sequence (P01112 whole entry): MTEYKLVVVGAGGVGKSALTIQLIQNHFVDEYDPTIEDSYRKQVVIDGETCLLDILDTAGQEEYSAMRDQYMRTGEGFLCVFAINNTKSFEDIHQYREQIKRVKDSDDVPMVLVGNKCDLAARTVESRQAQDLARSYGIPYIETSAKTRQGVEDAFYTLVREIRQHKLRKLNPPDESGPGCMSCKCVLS

[4] = tested on: human lung cancer strain NCI-H441;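 note: cell proliferation inhibition after four days measured by CellTiter-Glo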
[5] = SPR, Single Cycle Kinetics, 1:1 binding model
[6] = SPR Single Cycle Kinetics, 1:1 binding model

CC[C@H](C)[C@@H]1NC(=O)[C@H](CC)N(C)C(=O)C[C@@H](C(=O)N(C)C)N(C)C(=O)[C@H](C2CCCC2)N(C)C(=O)C2(CCC2)NC(=O)[C@H](C)NC(=O)[C@H](CCc2cc(F)c(C(F)(F)F)c(F)c2)NC(=O)CN(C)C(=O)[C@H](Cc2ccc(C(F)(F)F)cc2)N2CC/C=C\C[C@@H](C2=O)N(C)C(=O)CN(C)C1=O [PP1140, (2S,8S,11S,17S,20S,24S,27S,33S,35Z)-17-cyclopentyl-8-[2-[3,5-difluoro-4-(trifluoromethyl)phenyl]ethyl]-24-ethyl-N,N,4,11,16,19,23,29,32-nonamethyl-27-[(1S)-1-methylpropyl]-3,6,9,12,15,18,22,25,28,31,39-undecaoxo-2-[[4-(trifluoromethyl)phenyl]methyl]spiro[1,4,7,10,13,16,19,23,26,29,32-undecazabicyclo[31.5.1]nonatriacont-35-ene-14,1′-cyclobutane]-20-carboxamide]
Kd ([1]; SPR, Single Cycle Kinetics): 0.15 nM | NRAS/KRAS (ratio of KD value for NRAS to KD value for KRAS) [2]: A (a compound having 10 or more and less than 20 is denoted as A) | HRAS/KRAS (ratio of KD value for HRAS to KD value for KRAS) [3]: A (a compound having 10 or more and less than 20 is denoted as A) | IC50 [4]: 1780 nM

CCO[C@@H]1C[C@H]2C(=O)NC3(CCC3)C(=O)N(C)[C@@H](C3CCCC3)C(=O)N(C)[C@H](C(=O)N(C)C)CC(=O)N(C)[C@@H](CC(F)F)C(=O)N[C@@H]([C@@H](C)CC)C(=O)N(C)CC(=O)N(C)[C@H]3CCCCCN(C3=O)[C@@H](Cc3ccc(F)cc3)C(=O)N(C)CC(=O)N[C@@H](CCc3cc(F)c(C(F)(F)F)c(F)c3)C(=O)N2C1 [PP1191]
Kd ([1]; SPR, Single Cycle Kinetics): 0.056 nM | NRAS/KRAS (ratio of KD value for NRAS to KD value for KRAS) [2]: A (a compound having 10 or more and less than 20 is denoted as A) | HRAS/KRAS (ratio of KD value for HRAS to KD value for KRAS) [3]: B (a compound having 3 or more and less than 10 is denoted as B) | IC50 [4]: 13 nM

CCO[C@@H]1C[C@H]2C(=O)NC3(CC(C)(C)C3)C(=O)N(C)[C@@H](C3CCCC3)C(=O)N(C)[C@H](C(=O)N(C)CC)CC(=O)N(C)[C@@H](COC)C(=O)N[C@@H]([C@@H](C)CC)C(=O)N(C)CC(=O)N(C)[C@H]3C/C=C\CCN(C3=O)[C@@H](Cc3ccc(C)cc3)C(=O)N(C)CC(=O)N[C@@H](CCc3ccc(C(F)(F)F)c(Cl)c3)C(=O)N2C1 [PP2507]
Kd ([1]; SPR, Single Cycle Kinetics): 0.061 nM | NRAS/KRAS (ratio of KD value for NRAS to KD value for KRAS) [2]: AA (a compound having 20 or more is denoted as AA) | HRAS/KRAS (ratio of KD value for HRAS to KD value for KRAS) [3]: A (a compound having 10 or more and less than 20 is denoted as A) | IC50 [4]: 8.9 nM

CC[C@H](C)[C@@H]1NC(=O)[C@H](CC)N(C)C(=O)C[C@@H](C(=O)N(C)C)N(C)C(=O)[C@H](C2CCCC2)N(C)C(=O)C2(CCC2)NC(=O)[C@@H]2C[C@H](C)CN2C(=O)[C@H](CCc2cc(F)c(C(F)(F)F)c(F)c2)NC(=O)CN(C)C(=O)[C@H](CC2CCCCC2)N2CC/C=C\C[C@@H](C2=O)N(C)C(=O)CN(C)C1=O [PP1471]
Kd [1, 5]: 0.25 nM | NRAS/KRAS (ratio of KD value for NRAS to KD value for KRAS) ([2]; KD ratio class): A (a compound having 10 or more and less than 20 is denoted as A) | HRAS/KRAS (ratio of KD value for HRAS to KD value for KRAS) ([3]; KD ratio class): A (a compound having 10 or more and less than 20 is denoted as A) | IC50 [4]: 48.2 nM

CCO[C@@H]1C[C@H]2C(=O)NC3(CCC3)C(=O)N(C)[C@@H](C3CCCC3)C(=O)N(C)[C@H](C(=O)N3CCOCC3)CC(=O)N(C)[C@@H](CC(C)C)C(=O)N[C@@H]([C@@H](C)CC)C(=O)N(C)CC(=O)N(C)[C@H]3C/C=C\CCN(C3=O)[C@@H](Cc3ccc(C(F)(F)F)cc3)C(=O)N(C)CC(=O)N[C@@H](CCc3cc(F)c(C(F)(F)F)c(F)c3)C(=O)N2C1 [PP1282]
Kd [1, 5]: 0.2 nM | NRAS/KRAS (ratio of KD value for NRAS to KD value for KRAS) ([2]; KD ratio class): A (a compound having 10 or more and less than 20 is denoted as A) | HRAS/KRAS (ratio of KD value for HRAS to KD value for KRAS) ([3]; KD ratio class): A (a compound having 10 or more and less than 20 is denoted as A) | IC50 [4]: 12.3 nM

CCC[C@H]1C(=O)N[C@@H]([C@@H](C)CC)C(=O)N(C)CC(=O)N(C)[C@H]2C/C=C\CCN(C2=O)[C@@H](CC2CCC(F)(F)CC2)C(=O)N(C)CC(=O)N[C@@H](CCc2cc(F)c(C(F)(F)F)c(F)c2)C(=O)N2C[C@H](OCC)C[C@H]2C(=O)NC2(CCC2)C(=O)N(C)[C@@H](C2CCCC2)C(=O)N(C)[C@H](C(=O)N(C)C)CC(=O)N1C [PP1450, (2S,8S,12R,14S,20S,23S,27S,30S,36S,38Z)-20-cyclopentyl-2-[(4,4-difluorocyclohexyl)methyl]-8-[2-[3,5-difluoro-4-(trifluoromethyl)phenyl]ethyl]-12-ethoxy-N,N,4,19,22,26,32,35-octamethyl-30-[(1S)-1-methylpropyl]-3,6,9,15,18,21,25,28,31,34,42-undecaoxo-27-propyl-spiro[1,4,7,10,16,19,22,26,29,32,35-undecazatricyclo[34.5.1.0^10,14]dotetracont-38-ene-17,1′-cyclobutane]-23-carboxamide]
Kd [1, 5]: 0.14 nM | NRAS/KRAS (ratio of KD value for NRAS to KD value for KRAS) ([2]; KD ratio class): A (a compound having 10 or more and less than 20 is denoted as A) | HRAS/KRAS (ratio of KD value for HRAS to KD value for KRAS) ([3]; KD ratio class): A (a compound having 10 or more and less than 20 is denoted as A) | IC50 [4]: 50.1 nM

CC[C@H](C)[C@@H]1NC(=O)[C@H](CC2CC2)N(C)C(=O)C[C@@H](C(=O)N2CCOCC2)N(C)C(=O)[C@H](C2CCCC2)N(C)C(=O)C2(CCC2)NC(=O)[C@@H]2CCCN2C(=O)[C@H](CCc2ccc(C(F)(F)F)c(Cl)c2)NC(=O)CN(C)C(=O)[C@H](Cc2ccc(C(F)(F)F)cc2)N2C[C@H](C)CC[C@@H](C2=O)N(C)C(=O)CN(C)C1=O [PP1344]
Kd [1, 5]: 0.14 nM | NRAS/KRAS (ratio of KD value for NRAS to KD value for KRAS) ([2]; KD ratio class): B (a compound having 3 or more and less than 10 is denoted as B) | HRAS/KRAS (ratio of KD value for HRAS to KD value for KRAS) ([3]; KD ratio class): B (a compound having 3 or more and less than 10 is denoted as B) | IC50 [4]: 16.7 nM

CCC(CC)[C@H]1C(=O)N(C)[C@H](C(=O)N(C)C)CC(=O)N(C)[C@@H](C(C)C)C(=O)N[C@@H]([C@@H](C)CC)C(=O)N(C)CC(=O)N(C)[C@H]2C/C=C\CCN(C2=O)[C@@H](CC2CCC(F)(F)CC2)C(=O)N(C)CC(=O)N[C@@H](CCc2cc(F)c(C(F)(F)F)c(F)c2)C(=O)N2C[C@@H](C)C[C@H]2C(=O)NC2(CC(C)(C)C2)C(=O)N1C [PP2496]
Kd ([1]; SPR, Single Cycle Kinetics): 6.2 nM | NRAS/KRAS (ratio of KD value for NRAS to KD value for KRAS) [2]: A (a compound having 10 or more and less than 20 is denoted as A) | HRAS/KRAS (ratio of KD value for HRAS to KD value for KRAS) [3]: A (a compound having 10 or more and less than 20 is denoted as A) | IC50 [4]: 97.3 nM

CCO[C@@H]1C[C@H]2C(=O)NC3(COC3)C(=O)N(C)[C@@H](C3CCCC3)C(=O)N(C)[C@H](C(=O)N(C)C)CC(=O)N(C)[C@@H](CC)C(=O)N[C@@H]([C@@H](C)CC)C(=O)N(C)CC(=O)N(C)[C@H]3C/C=C\CCN(C3=O)[C@@H](Cc3ccc(C(F)(F)F)cc3)C(=O)N(C)CC(=O)N[C@@H](CCc3cc(F)c(C(F)(F)F)c(F)c3)C(=O)N2C1 [PP1278, (2S,8S,12R,14S,20S,23S,27S,30S,36S,38Z)-20-cyclopentyl-8-[2-[3,5-difluoro-4-(trifluoromethyl)phenyl]ethyl]-12-ethoxy-27-ethyl-N,N,4,19,22,26,32,35-octamethyl-30-[(1S)-1-methylpropyl]-3,6,9,15,18,21,25,28,31,34,42-undecaoxo-2-[[4-(trifluoromethyl)phenyl]methyl]spiro[1,4,7,10,16,19,22,26,29,32,35-undecazatricyclo[34.5.1.0^10,14]dotetracont-38-ene-17,3′-oxetane]-23-carboxamide]
Kd [1, 5]: 0.14 nM | NRAS/KRAS (ratio of KD value for NRAS to KD value for KRAS) ([2]; KD ratio class): A (a compound having 10 or more and less than 20 is denoted as A) | HRAS/KRAS (ratio of KD value for HRAS to KD value for KRAS) ([3]; KD ratio class): B (a compound having 3 or more and less than 10 is denoted as B) | IC50 [4]: 45.7 nM

CCO[C@@H]1C[C@H]2C(=O)NC3(CCC3)C(=O)N(C)[C@@H](C3CCCC3)C(=O)N(C)[C@H](C(=O)N(C)C)CC(=O)N(C)[C@@H](CC3CC3)C(=O)N[C@@H]([C@@H](C)CC)C(=O)N(C)CC(=O)N(C)[C@H]3CCCCCN(C3=O)[C@@H](Cc3ccc(F)cc3)C(=O)N(C)CC(=O)N[C@@H](CCc3cc(F)c(C(F)(F)F)c(F)c3)C(=O)N2C1 [PP1192]
Kd ([1]; SPR, Single Cycle Kinetics): 0.04 nM | NRAS/KRAS (ratio of KD value for NRAS to KD value for KRAS) [2]: B (a compound having 3 or more and less than 10 is denoted as B) | HRAS/KRAS (ratio of KD value for HRAS to KD value for KRAS) [3]: A (a compound having 10 or more and less than 20 is denoted as A) | IC50 [4]: 10.5 nM

CCOC[C@H]1C(=O)N[C@@H]([C@@H](C)CC)C(=O)N(C2CC2)CC(=O)N(C)[C@H]2C/C=C\CCN(C2=O)[C@@H](Cc2ccc(C)cc2)C(=O)N(C)CC(=O)N[C@@H](CCc2ccc(Cl)c(Cl)c2)C(=O)N2C[C@H](OCC)C[C@H]2C(=O)NC2(CC(C)(C)C2)C(=O)N(C)[C@@H](CC(C)(C)C)C(=O)N(C)[C@H](C(=O)N(C)C)CC(=O)N1C [PP2728]
Kd [1, 6]: 1.1 nM | NRAS/KRAS (ratio of KD value with respect to GDP-bound NRAS wild-type protein to KD value with respect to KRAS) [2]: AA (a compound having 20 or more is denoted as AA) | HRAS/KRAS (ratio of KD value with respect to GDP-bound HRAS wild-type protein to KD value with respect to KRAS) [3]: A (a compound having 10 or more and less than 20 is denoted as A) | IC50 [4]: 54.3 nM

CCC[C@H]1C(=O)N[C@@H](CC(C)C)C(=O)N(CC)CC(=O)N(C)[C@H]2C/C=C\CCN(C2=O)[C@@H](Cc2ccc(C)cc2)C(=O)N(C)CC(=O)N[C@@H](CCc2ccc(C(F)(F)F)c(Cl)c2)C(=O)N2C[C@H](OCC)C[C@H]2C(=O)NC2(CC(C)(C)C2)C(=O)N(C)[C@@H](C2CCCC2)C(=O)N(C)[C@H](C(=O)N(C)C)CC(=O)N1C [PP2528]
Kd [1, 6]: 4.6 nM | NRAS/KRAS (ratio of KD value with respect to GDP-bound NRAS wild-type protein to KD value with respect to KRAS) [2]: A (a compound having 10 or more and less than 20 is denoted as A) | HRAS/KRAS (ratio of KD value with respect to GDP-bound HRAS wild-type protein to KD value with respect to KRAS) [3]: B (a compound having 3 or more and less than 10 is denoted as B) | IC50 [4]: 207 nM
